Data from US20090181904A1, “METHOD FOR REGULATING NUTRIENT ABSORPTION WITH GINSENOSIDES” (priority 2005, published 2009).

Key:
Type in all cases: cell-based, human
Caco2 cell monolayer = experiment: Glucose absorption assay (transport across Caco2 monolayer in transwell, 14C-glucose); conditions: for Transport rate (glucose): 2 days pretreatment, 25 mM glucose
Protocol: For glucose absorption assay, 0.3 mL (10^5 cell/ml) of Caco2 cells were seeded into the apical chamber of each transwell and the basolateral chamber was added with 1 ml of culture medium (as indicated above). Costar transwell inserts (No. 3414, Corning Incorporated, NY, USA) separate each well in 24-well plates into an apical chamber (defined as a chamber above the insert) and a basolateral chamber (defined as a chamber below the insert). The culture medium in each transwell was changed every 2 days in both of the apical and basolateral chambers. To ensure the integrity of tight junction of Caco2 monolayer membrane formed in the transwell, a Trans-Epithelial Electrical Resistance (TEER) assay was conducted using Millicell®-ERS (Millipore EVOM-6; World Precision Instrument, Sarasota, Fla., USA) to measure the TEER between apical and basolateral chambers of the transwell. As the measured TEER reached 300 to 450 Ωcm^2 with the presence of differentiated brush border on the […] side of the cell on the 14th to 21st day of the culture, the Caco2 monolayer was ready for the glucose absorption test. The TEER values were taken before, during, and after each experiment to justify consistency of the data collected.
Glucose absorption was initiated by replacing the culture medium in the basolateral chamber with fresh glucose absorption buffer and the culture medium in the apical chamber with 0.2 mL of the glucose absorption buffer containing 2 μCi/ml of radioactive D-[^14C]-glucose (60 Ci/mmol, American Radiolabeled Chemicals, ARC, St. Louis, Mo., USA) and unlabeled cold glucose to give glucose at a final concentration of 25 mM. A series of five 10-μL samples were taken from the basolateral chamber at every 5 or 10 minute intervals. In order to maintain the constant buffer volume, same amount of sample buffer were added back to the basolateral chamber after withdrawn of each sample. The samples were transferred to the filter-bottomed UniFilter plates (Perkin-Elmer, Wellesley, Mass., USA) and dried in a vacuum oven at 37° C. The bottom of the UniFilter plate was sealed and 25 μL of the counting solution were added into each well. Adhesive plate sealers were used in place of the lids and radioactivity of each sample was counted using the microplate liquid scintillation counter (TopCount, Packard NXT, Packard BioScience Company, Meriden, Conn., USA). The effect of test compounds on glucose absorption was expressed as the nmoles of glucose accumulated in the basolateral chamber with respect to time in minutes (nmol/min). The glucose absorption rate was obtained by calculating the slope of the straight line from the time zero to the end point of the graphic data of each figure.

Caco-2 cell monolayer = experiment: Arginine absorption assay (transport across Caco-2 monolayer, 3H-arginine); conditions: for Transport rate (arginine): 10 mM L-arginine
Protocol: In measuring transport of arginine across the Caco-2 cell monolayer, both sides of the transwells were washed with arginine incubation buffer consisting of: 137 mM NaCl, 10 mM Hepes, 0.3 mM NaH2PO4, 0.3 mM K2HPO4, 5.4 mM KCl, 2.8 mM CaCl2, 1 mM MgSO4, 10 mM glucose, adjusted to pH 7.4. Then, the cell layer was pre-incubated in the incubation buffer at 37° C. for 1 h. The volumes of incubation buffer were 0.2 mL and 0.9 mL in the apical and basolateral chambers, respectively. The cells were replaced with fresh incubation medium in both chambers prior to the transport experiment. The transport experiment was initiated by replacing the incubation solution on the apical side with solution containing 10 mM of L-arginine in which 0.125 μCi/mL of L-[^3H]-arginine was included. At designated time intervals, 10 μL-solution samples were removed from the basolateral side and radioactivity of each sample was counted using a microplate liquid scintillation counter (TopCount, Packard NXT). During the experiment, when a 10 μL-solution sample was removed from the basolateral side every time, 10 μL buffer was supplemented to keep the volume constant. The uptake of [^3H]-mannitol was used to correct for nonspecific transport of molecules across the monolayer membrane. Results were expressed as the nanomoles of arginine transport across the Caco-2 cell monolayers with respect to time in minutes (nmol/min).

Caco2 cells = experiment: Folate uptake assay (3H-folate uptake in Caco2 cells); conditions: compound 0.1 μM; for Transport rate (folate uptake): 2 days pretreatment, 5 μM folate, pH 6.0
Protocol: The Caco2 cells were subjected to folate uptake test in a manner similar to that described in the glucose uptake assay in Example 1 above. In the folate uptake test, the Caco2 cells were pretreated with the culture medium containing 5% FBS and purified ginsenosides at a concentration of […] for 2 days before the cells were cultured in a folate uptake buffer (Hank's balanced salt solution, supplemented with 0.14 g/L CaCl2, 0.1 g/L MgCl2, and 0.1 g/L MgSO4, pH 6.0) for 1 hour. The buffer was then aspirated, and uptake was initiated by adding 0.2 mL of fresh folate uptake buffer containing 2 μCi/mL radioactive folate (3,5,7,9-^3H-folic acid, 25 mCi/mmol, ARC) and cold, unlabeled folate giving a final folate concentration of 5 μM. Folate uptake was terminated by removing the uptake buffer at designated time intervals. The cells were then washed three times with ice-cold PBS and lysed by adding 0.2 mL of 0.2 N NaOH, followed by incubating at 65° C. for 20 min. Intracellular uptake of ^3H-folate was determined by transferring 20 μL of the cell lysate to the filter-bottomed UniFilter plates (Perkin-Elmer) and counting as described previously in Example 1. The amount of folate accumulated in the cells was calculated and normalized to protein concentration, and uptake rate was expressed as picomoles of folate per minutes per milligram of cell protein (pmol/min/mg). Protein concentration was determined by a standard Bicinchoninic acid (BCA) protein assay as described above.

Structure (SMILES)	effect on glucose absorption (in words) (Caco2 cell monolayer)	Percentage (glucose transport, control = 100) (Caco2 cell monolayer; compound 0.01 μM)	Transport rate (glucose) (Caco2 cell monolayer; compound 0.01 μM)	Percentage (glucose transport, control = 100) (Caco2 cell monolayer; compound 0.1 μM)	Transport rate (glucose) (Caco2 cell monolayer; compound 0.1 μM)	Percentage (glucose transport, control = 100) (Caco2 cell monolayer; compound 1 μM)	Transport rate (glucose) (Caco2 cell monolayer; compound 1 μM)	Percentage (arginine transport, control = 100) (Caco-2 cell monolayer; compound 0.01 μM)	Transport rate (arginine) (Caco-2 cell monolayer; compound 0.01 μM)	Percentage (arginine transport, control = 100) (Caco-2 cell monolayer; compound 0.1 μM)	Transport rate (arginine) (Caco-2 cell monolayer; compound 0.1 μM)	Percentage (arginine transport, control = 100) (Caco-2 cell monolayer; compound 1 μM)	Transport rate (arginine) (Caco-2 cell monolayer; compound 1 μM)	Percentage (folate uptake, control = 100) (Caco2 cells)	folate uptake versus non-treated control (in words, FIG. 5) (Caco2 cells)	Transport rate (folate uptake) (Caco2 cells)	glucose transport rate (in words, FIG. 1) (Caco2 cell monolayer; compound 0.1 μM to 5 μM)
CC(C)=CCC[C@](C)(O)C1CC[C@]2(C)C1C(O)CC1[C@@]3(C)CCC(O)C(C)(C)C3C(OC3OC(CO)C(O)C(O)C3O)C[C@]12C (some centres unmarked) [Rh1, ginsenoside Rh1]	inhibitory effect	62.20%	1.3568 ± 0.1090 nmol/min	74.86%	1.6329 ± 0.1976 nmol/min	61.02%	1.3310 ± 0.8356 nmol/min	105.56%	11.2792 ± 0.7768 nmol/min	109.13%	11.6615 ± 0.8085 nmol/min	134.02%	14.3209 ± 0.7418 nmol/min	49.36%	decreased	0.8494 ± 0.453 pmol/mg/min	
CC(C)=CCC[C@](C)(O[C@@H]1O[C@H](CO[C@@H]2O[C@H](CO)[C@@H](O)[C@H](O)[C@H]2O)[C@@H](O)[C@H](O)[C@H]1O)[C@H]1CC[C@]2(C)[C@@H]1[C@H](O)C[C@@H]1[C@@]3(C)CC[C@H](O[C@@H]4O[C@H](CO)[C@@H](O)[C@H](O)[C@H]4O[C@@H]4O[C@H](CO)[C@@H](O)[C@H](O)[C@H]4O)C(C)(C)[C@@H]3CC[C@]12C [Rb1, ginsenoside Rb1]		102.26%	2.2306 ± 0.1034 nmol/min	128.85%	2.8107 ± 0.1982 nmol/min	157.01%	3.4250 ± 0.4805 nmol/min	90.30%	9.6487 ± 0.9377 nmol/min	111.08%	11.8699 ± 1.9300 nmol/min	151.12%	16.1484 ± 0.6228 nmol/min	108.72%	increased folate uptake	1.8710 ± 0.0320 pmol/mg/min	increased
CC(C)=CCC[C@](C)(O[C@@H]1O[C@H](CO)[C@@H](O)[C@H](O)[C@H]1O)[C@H]1CC[C@]2(C)[C@@H]1[C@H](O)C[C@@H]1[C@@]3(C)CC[C@H](O)C(C)(C)[C@@H]3[C@@H](O)C[C@]12C [GF1, ginsenoside F1]		141.12%	3.0783 ± 0.9550 nmol/min	153.80%	3.3551 ± 0.3248 nmol/min	150.65%	3.2862 ± 0.3429 nmol/min	126.74%	13.5425 ± 1.8630 nmol/min	118.73%	12.6865 ± 0.2964 nmol/min	97.06%	10.3711 ± 0.6574 nmol/min				
CC(C)=CCC[C@](C)(O)[C@H]1CC[C@]2(C)[C@@H]1[C@H](O)C[C@@H]1[C@@]3(C)CC[C@H](O)C(C)(C)[C@@H]3[C@@H](O)C[C@]12C [Rga, 20(S)-protopanaxatriol]		116.69%	2.5454 ± 0.7808 nmol/min	167.15%	3.6462 ± 0.4105 nmol/min	104.01%	2.2689 ± 0.2598 nmol/min	118.16%	12.6265 ± 0.9875 nmol/min	100.66%	10.7555 ± 0.4532 nmol/min	95.38%	10.1920 ± 1.2390 nmol/min				
